# PubChem BioAssay (NCI)
#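 Interpolation was linear, between the two tested concentrations surrounding the appropriate level; five concentrations were tested over 48 hours in 96-well plates. TGI is the concentration that stops growth completely.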
# Key:
# Assay in all cases: DTP human tumour cell line panel, 48 h
# [1] = system: OVCAR-8 ovarian
# [2] = system: EKVX NSCLC
# [3] = system: MALME-3M melanoma
# [4] = system: A498 renal
# [5] = system: MDA-MB-435
# [6] = system: NCI/ADR-RES ovarian
# [7] = system: HCT-116 colon
# [8] = system: SK-MEL-28 melanoma
# [9] = system: 786-0 renal
# [10] = system: OVCAR-4 ovarian
# [11] = system: COLO 205 colon
# [12] = system: OVCAR-5 ovarian
# [13] = system: DU-145 prostate
# [14] = system: K-562 leukemia
# [15] = system: SK-MEL-2 melanoma
# [16] = system: MOLT-4 leukemia
# [17] = system: HT29 colon
# [18] = system: IGROV1 ovarian
# [19] = system: U251 CNS
# [20] = system: HS 578T breast
# [21] = system: SK-MEL-5 melanoma
# [22] = system: NCI-H460 lung
# [23] = system: NCI-H522 lung
# [24] = system: OVCAR-3 ovarian
# [25] = system: KM12 colon
# [26] = system: LOX IMVI melanoma
# [27] = system: HL-60(TB) leukemia
# [28] = system: UACC-257 melanoma
# [29] = system: SR leukemia
# [30] = system: SF-268 CNS
# [31] = system: A549 NSCLC
# [32] = system: HCC-2998 colon
# [33] = system: SW-620 colon
# [34] = system: RPMI-8226 leukemia
# [35] = system: HOP-62 NSCLC
# [36] = system: MCF7 breast
# [37] = system: MDA-N
# [38] = system: UACC-62 melanoma
# [39] = system: ACHN renal
# [40] = system: UO-31 renal
# [41] = system: HCT-15 colon
# [42] = system: CCRF-CEM leukemia
# [43] = system: SNB-19 CNS
# [44] = system: M14 melanoma
# [45] = system: SF-295 CNS
# [46] = system: CAKI-1 renal
# [47] = system: PC-3 prostate
# [48] = system: SF-539 CNS
# [49] = system: BT-549 breast
# [50] = system: HOP-92 NSCLC
# [51] = system: RXF 393 renal
# [52] = system: SN12C renal
# [53] = system: NCI-H23 lung
# [54] = system: SNB-75 CNS
# [55] = system: SK-OV-3 ovarian
# [56] = system: T-47D breast
smiles,measurement,setting,value
O=c1cnnc2sc(=S)[nH]n12,TGI,[1],34.3 µM
same,TGI,[2],> 100 µM
same,TGI,[3],> 100 µM
same,TGI,[4],> 100 µM
same,TGI,[5],> 100 µM
same,TGI,[6],> 100 µM
same,TGI,[7],> 100 µM
same,TGI,[8],> 100 µM
same,TGI,[9],49.8 µM
same,TGI,[10],53.4 µM
same,TGI,[11],> 100 µM
same,TGI,[12],> 100 µM
same,TGI,[13],> 100 µM
same,TGI,[14],36.8 µM
same,TGI,[15],> 100 µM
same,TGI,[16],42.2 µM
same,TGI,[17],> 100 µM
same,TGI,[18],74 µM
same,TGI,[19],75.3 µM
same,TGI,[20],> 100 µM
same,TGI,[21],57.9 µM
same,TGI,[22],> 100 µM
same,TGI,[23],27 µM
same,TGI,[24],> 100 µM
same,TGI,[25],> 100 µM
same,TGI,[26],13.9 µM
same,TGI,[27],79.9 µM
same,TGI,[28],78.4 µM
same,TGI,[29],62.3 µM
same,TGI,[30],> 100 µM
same,TGI,[31],> 100 µM
same,TGI,[32],> 100 µM
same,TGI,[33],24.9 µM
same,TGI,[34],29.1 µM
same,TGI,[35],9.18 µM
same,TGI,[36],39.8 µM
same,TGI,[37],> 100 µM
same,TGI,[38],> 100 µM
same,TGI,[39],> 100 µM
same,TGI,[40],52.1 µM
same,TGI,[41],57.3 µM
same,TGI,[42],12.1 µM
same,TGI,[43],> 100 µM
same,TGI,[44],> 100 µM
same,TGI,[45],> 100 µM
same,TGI,[46],68.2 µM
same,TGI,[47],> 100 µM
same,TGI,[48],> 100 µM
same,TGI,[49],64.4 µM
C#CCCCC(=C)C[C@@H]1OC(=O)[C@H](C)[C@@H]1O,TGI,[50],> 100 µM
same,TGI,[2],> 100 µM
same,TGI,[4],> 100 µM
same,TGI,[5],> 100 µM
same,TGI,[6],> 100 µM
same,TGI,[7],> 100 µM
same,TGI,[8],> 100 µM
same,TGI,[9],> 100 µM
same,TGI,[10],> 100 µM
same,TGI,[11],> 100 µM
same,TGI,[12],> 100 µM
same,TGI,[13],> 100 µM
same,TGI,[14],> 100 µM
same,TGI,[15],> 100 µM
same,TGI,[51],> 100 µM
same,TGI,[52],> 100 µM
same,TGI,[16],> 100 µM
same,TGI,[19],> 100 µM
same,TGI,[21],> 100 µM
same,TGI,[22],> 100 µM
same,TGI,[53],> 100 µM
same,TGI,[24],> 100 µM
same,TGI,[54],> 100 µM
same,TGI,[25],> 100 µM
same,TGI,[26],> 100 µM
same,TGI,[27],> 100 µM
same,TGI,[31],> 100 µM
same,TGI,[32],> 100 µM
same,TGI,[33],> 100 µM
same,TGI,[34],> 100 µM
same,TGI,[35],> 100 µM
same,TGI,[36],> 100 µM
same,TGI,[37],> 100 µM
same,TGI,[39],> 100 µM
same,TGI,[40],> 100 µM
same,TGI,[41],> 100 µM
same,TGI,[42],> 100 µM
same,TGI,[43],> 100 µM
same,TGI,[44],> 100 µM
same,TGI,[55],> 100 µM
same,TGI,[45],> 100 µM
same,TGI,[46],> 100 µM
same,TGI,[56],> 100 µM
same,TGI,[47],> 100 µM
